We go through four compounds from ChEMBL document CHEMBL1770113, “Improved synthesis of 15-deoxyspergualin analogs using the Ugi multi-component reaction” (Bioorg Med Chem Lett, 2011).

≈ marks a conversion by molar mass, not a printed value.

In general, MIC refers to the smallest concentration in the dilution series that meets the test's criterion for growth inhibition. Low values mean inhibition by little substance, high ones a need for much substance. By half-life is commonly meant the time needed for the level to fall by half in the phase considered.

One data set concerns Bacillus subtilis. Nature of the data set: Antibacterial activity against Bacillus subtilis. Format: functional.
A short description of data set [1]: Chemical stability of the compound in aqueous buffer assessed as half life at pH 7 by thin layer chromatography. The data set is classed as physicochemical.
A short description of data set [2]: Chemical stability of the compound in aqueous buffer assessed as half life at pH 8 by thin layer chromatography. Format: physicochemical. The note with it: for half-life: aqueous buffer.
The test system of the next data set is Staphylococcus aureus. Nature of the data set: Antibacterial activity against Staphylococcus aureus. The data set is classed as functional.
The next data set relates to Escherichia coli. Briefly: Antibacterial activity against Escherichia coli. The data set is classed as functional.
The nature of data set [3]: Chemical stability of the compound in aqueous buffer assessed as half life at pH 5 by thin layer chromatography. Format: physicochemical. The note with it: for half-life: aqueous buffer; for Stability: buffer.
Data set [4] is described as follows: Chemical stability of the compound in aqueous buffer assessed as half life at pH 10 by thin layer chromatography. The data set is classed as physicochemical. The note with it: for half-life: aqueous buffer.

As to `COC(NC(=O)CCCCCCNC(=N)N)C(=O)NCCCCNCCCN` (racemic), the MIC against Bacillus subtilis was 50 µg/mL (≈ 125 µM); in the data set with Staphylococcus aureus, 50 µg/mL (≈ 125 µM); in the data set on Escherichia coli, above 250 µg/mL. The half-life in data set [1] is 7.92 days; in data set [2], 30 days; in data set [3], 5.83 days; in data set [4], 2880 min.
As to `N=C(N)NCCCCCCC(=O)NC(C(=O)NCCCCNCCCN)c1ccc(Br)cc1` (racemic), the MIC in the data set on Bacillus subtilis was 50 µg/mL (≈ 95 µM); against Staphylococcus aureus it was 50 µg/mL (≈ 95 µM); against Escherichia coli, above 250 µg/mL. The half-life is 18.3 days in data set [1] and 25200 min in data set [4]. Also, the Stability entry in data set [2] (buffer) and in data set [3] was “Unstable” throughout.
For the compound `N=C(N)NCCCCCCC(=O)NC(CCc1ccccc1)C(=O)NCCCCNCCCN` (racemic), the values for the MIC against Bacillus subtilis, against Staphylococcus aureus and against Escherichia coli were 50 µg/mL (≈ 105 µM), 50 µg/mL (≈ 105 µM) and above 250 µg/mL, respectively. Besides, the half-life is 8.46 days in data set [1] and 23.5 days in data set [2]. For the same compound, the Stability result in data set [3] and in data set [4] (buffer) was “Unstable” throughout.
In the case of `N=C(N)NCCCCCCC(=O)NCC(=O)NCCCCNCCCN`, the figures for the MIC against Bacillus subtilis, against Staphylococcus aureus and in the data set on Escherichia coli were 10 µg/mL (≈ 26.9 µM), 10 µg/mL (≈ 26.9 µM) and above 250 µg/mL, respectively. Besides, the half-life was 4.17 days in data set [1], 10.8 days in data set [2], 3.75 days in data set [3] and 180 min in data set [4].
